We go through 18 molecules from patent publication US20240016941A1, “COMBINATION THERAPY” (priority 2020, published 2024).

Holding throughout (assay type): biochemical
The target of assay [1] is T1, purified LasB protein from P. aeruginosa (Pseudomonas aeruginosa, UniProt P14756).
T1 construct: purchased Merck or Charles River Laboratories
Briefly: Fluorometric assay to determine Ki (purified LasB, Abz-Ala-Gly-Leu-Ala-p-Nitro-Benzyl-Amide substrate). The protocol:
(§1) Experiments were therefore conducted (1) to measure the potency of inhibition of compounds of the invention against purified Pseudomonas aeruginosa LasB enzyme and also experiments were conducted (2) to measure the ability of compounds of the invention to inhibit LasB-catalysed elastin degradation. The first assay uses a commercial fluorescent synthetic peptide and purified LasB enzyme. The LasB hydrolysis kinetics are measured allowing the determination of the IC50 and Ki of the inhibitors; the second is a more physiological assay using dialysed Pseudomonas aeruginosa supernatant as source of enzyme, plus its natural substrate Elastin. It is an “end point assay” that determines the percentage of LasB inhibition by each compound for one particular time point and inhibitor concentration. Technical details are described below:
This assay uses commercially available substrate (Abz-Ala-Gly-Leu-Ala-p-Nitro-Benzyl-Amide (Ex: 340 nm, Em: 415 nm) from Peptide International) and purified LasB protein from P. aeruginosa (provided by Merck or Charles River Laboratories). It is performed to determine LasB elastase activity and assess compound inhibition in 96-well plate format. All compounds of Formula (I) were assessed using the method described below.
Method: 10 to 140 ng/ml purified LasB is incubated with 250 μM Abz-Ala-Gly-Leu-Ala-p-Nitro-Benzyl-Amide in 50 mM Tris-HCl pH 7.4, 2.5 mM CaCl2), 0.01% of Triton X100 at 37° C. LasB activity (corresponding to fluorescence emission induced by substrate hydrolysis) is measured over 30 min at 37° C. with a fluorescence plate reader such as the Perkin Elmer Envision or similar. Different range of inhibitor concentrations are routinely assessed depending of inhibitor potency from 0.0016 to 200 μM (2-fold dilutions series) in order to determine IC50.
The equation used to calculate the Ki from IC50 is: Ki=IC50/(1+([S]/Km)) where [S]=250 μM and Km=214 μM.

A further assay has as its target purified LasB (Pseudomonas aeruginosa, UniProt P14756). In words: Inhibition of LasB-mediated hydrolysis of pro-IL-1β to IL-1β (FRET peptide). The protocol:
Hydrolysis of this FRET peptide was continuously monitored using a Victor multimode plate reader (Perkin Elmer) with excitation 355 nm and emission at 450 nm in the presence of varying concentrations of compounds of the invention. Inhibitory constants (Ki) were determined for certain compounds of the invention (at least 2 independent replicates) using a competitive inhibitor model.

In assay [2] the target is T2, LasB elastase activity of dialysed supernatant from P. aeruginosa PAO1 (Pseudomonas aeruginosa, UniProt P14756).
T2 construct: Culture supernatants are recovered by centrifugation and filtrated through a 0.22 μM filter; endogenous in cells; host or cells: P. aeruginosa strain PAO1, culture supernatant, filtered and dialysed
Briefly: Elastin Congo-Red assay to determine % inhibition (dialysed PAO1 supernatant). The conditions noted are these: read-out: Elastin hydrolysis % inhibition @ 25 μM inhibitor concentration. The procedure:
as §1
The Elastin assay uses as source of enzyme dialysed supernatant from P. aeruginosa PAO1 and the Elastin Congo-Red as substrate. The natural LasB substrate, elastin, is complexed with the congo-red dye (Elastin Congo-Red, ECR). The elastolysis activity from the culture supernatant will degrade elastin and release the congo-red dye into the supernatant. This red dye release can be measured with a spectrophotometer.
Method: To determine LasB elastase activity and assess compound inhibition, an overnight culture of P. aeruginosa strain PAO1 is diluted in LB medium. After reaching an OD600nm of 0.6, this culture is diluted and incubated for additional 18-24 hours in a shaking incubator. Culture supernatants are recovered by centrifugation and filtrated through a […] filter. These supernatants are dialysed (filtration molecules <20 kDa) into a 50 mM Tris-HCl pH 7.4, 2.5 mM CaCl2 solution at 4° C. under agitation for 24 hours. Supernatant dialysed is then mixed volume/volume with the ECR suspension (20 mg/mL of ECR in 100 mM Tris-HCl pH 7.4 buffer supplemented with 1 mM CaCl2)) supplemented with Triton X100 (final concentration of 0.01%) in presence of DMSO (positive control) and/or different concentrations of compound (routinely 50 to 1.56 μM). As a negative control, the dialysed supernatant is replaced by Tris-HCl solution (50 mM Tris-HCl pH 7.4, 2.5 mM CaCl2). The mixed reaction is then incubated overnight in a 37° C. shaking incubator. The reaction supernatant is recovered by centrifugation and the release of congo-red is measured by its absorbance at 495 nm (OD495nm).
Percentage inhibition is determined using the following equation:
((OD495 nm value of positive control−OD495nm value of negative control)−(OD495nm value of treated supernatant−OD495nm value of negative control))/(OD495nm value of positive control−OD495nm value of negative control)×100.

The structures appear in SMILES notation.

T1 sequence (P14756 198-498): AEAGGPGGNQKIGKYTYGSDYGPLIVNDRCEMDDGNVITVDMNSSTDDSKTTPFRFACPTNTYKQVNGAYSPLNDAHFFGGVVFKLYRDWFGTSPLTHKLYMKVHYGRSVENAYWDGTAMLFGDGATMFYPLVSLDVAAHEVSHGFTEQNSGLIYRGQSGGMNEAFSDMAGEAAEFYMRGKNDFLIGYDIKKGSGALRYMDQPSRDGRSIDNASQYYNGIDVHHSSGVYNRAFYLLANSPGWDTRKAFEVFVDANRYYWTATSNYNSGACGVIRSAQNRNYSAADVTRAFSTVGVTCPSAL
Chain of purified LasB (P14756 198-498): as above
T2 sequence (P14756 198-498): as above

For orientation: Ki means a dissociation constant, usually derived from enzyme kinetics or from competition with a known ligand. Low readings indicate higher affinity, high ones lower affinity. In the case of `COc1cc2sc(CNC(=O)C3(CC(=O)[O-])Cc4cc(F)c(F)cc4C3)nc2cc1OCCOCC[N+](C)(C)C` [Example 55, 2-[5,6-difluoro-2-[[6-methoxy-5-[2-[2-(trimethylammonio)ethoxy]ethoxy]-1,3-benzothiazol-2-yl]methylcarbamoyl]indan-2-yl]acetate], the Ki was less than 50 nM in assay [1] and 420 nM on purified LasB.

As to `COc1cc2sc(CNC(=O)C3(CC(=O)[O-])Cc4ccccc4C3)nc2cc1OCCC[N+](C)(C)CCO` [Example 20, 2-[2-[[5-[3-[2-hydroxyethyl(dimethyl)ammonio]propoxy]-6-methoxy-1,3-benzothiazol-2-yl]methylcarbamoyl]indan-2-yl]acetate], the inhibition at 25 µM in assay [2] lay within 60 to 80%. The inhibitory constant (Ki) in assay [1] was less than 50 nM; on purified LasB it was 340 nM.

For `COc1cc2sc(CNC(=O)C3(CC(=O)[O-])Cc4ccccc4C3)nc2cc1OCCC[N+](C)(CCO)CCO` [Example 22, 2-[2-[[5-[3-[bis(2-hydroxyethyl)-methyl-ammonio]propoxy]-6-methoxy-1,3-benzothiazol-2-yl]methylcarbamoyl]indan-2-yl]acetate], the inhibition at 25 µM in assay [2] was 60 to 80%. Further, the Ki in assay [1] is less than 50 nM; at purified LasB, 400 nM.

With `COc1cc2sc(CNC(=O)C3(CC(=O)O)Cc4cc(F)c(F)cc4C3)nc2cc1OCC1CCN(C)CC1` [Example 11, 2-[5,6-difluoro-2-[[6-methoxy-5-[(1-methyl-4-piperidyl)methoxy]-1,3-benzothiazol-2-yl]methylcarbamoyl]indan-2-yl]acetic acid], the inhibition at 25 µM in assay [2] was greater than 80%. Moreover, the figures for the inhibition constant (Ki) (in assay [1]; at purified LasB) were less than 50 nM and 220 nM, respectively.

Turning to `COc1cc2sc(CNC(=O)C3(CC(=O)O)Cc4ccccc4C3)nc2cc1S(=O)(=O)N1CCN(C)CC1` [Example 45, 2-[2-[[6-methoxy-5-(4-methylpiperazin-1-yl)sulfonyl-1,3-benzothiazol-2-yl]methylcarbamoyl]indan-2-yl]acetic acid], the inhibition at 25 µM in assay [2] lay in the range of 60 to 80%. Moreover, the inhibition constant (Ki) in assay [1] lay in the range of 50 to 200 nM.

On to `COc1cc2sc(CNC(=O)C3(CC(=O)[O-])Cc4cc(F)c(F)cc4C3)nc2cc1OCCC[N+]1(C)CCOCC1` [Example 15, 2-[5,6-difluoro-2-[[6-methoxy-5-[3-(4-methylmorpholin-4-ium-4-yl)propoxy]-1,3-benzothiazol-2-yl]methylcarbamoyl]indan-2-yl]acetate], for which the inhibition at 25 µM in assay [2] lay within 60 to 80%. The molecule also displayed a Ki in assay [1] of 50 to 200 nM.

`COc1cc2sc(CNC(=O)C3(CC(=O)O)Cc4cc(F)c(F)cc4C3)nc2cc1C(=O)N1CC(N(C)C)C1` [Example 37, 2-[2-[[5-[3-(dimethylamino)azetidine-1-carbonyl]-6-methoxy-1,3-benzothiazol-2-yl]methylcarbamoyl]-5,6-difluoro-indan-2-yl]acetic acid]: in assay [2], the inhibition at 25 µM was greater than 80%. This molecule had a Ki in assay [1] of less than 50 nM.

For `COc1cc2sc(CNC(=O)C3(CC(=O)O)Cc4ccccc4C3)nc2cc1C(=O)N1CCC(N(C)C)CC1` [Example 38, 2-[2-[[5-[4-(dimethylamino)piperidine-1-carbonyl]-6-methoxy-1,3-benzothiazol-2-yl]methylcarbamoyl]indan-2-yl]acetic acid], in assay [2], the inhibition at 25 µM is 60 to 80%. Further, in assay [1], the inhibition constant Ki lay in the range of 50 to 200 nM.

On to `O=C(O)CC1(C(=O)NCc2nc3c(S(=O)(=O)N4CCCC4)cccc3s2)Cc2ccccc2C1` [Example 3, 2-[2-[(4-pyrrolidin-1-ylsulfonyl-1,3-benzothiazol-2-yl)methylcarbamoyl]indan-2-yl]acetic acid], for which, in assay [2], the inhibition at 25 µM was 60 to 80%. Also, the inhibition constant (Ki) in assay [1] was in the range of 50 to 200 nM.

For `COc1cc2sc(CNC(=O)C3(CC(=O)O)Cc4cc(F)c(F)cc4C3)nc2cc1C(=O)N1CCN(C)CC1` [Example 34, 2-[5,6-difluoro-2-[[6-methoxy-5-(4-methylpiperazine-1-carbonyl)-1,3-benzothiazol-2-yl]methylcarbamoyl]indan-2-yl]acetic acid], in assay [2], the inhibition at 25 µM was greater than 80%. Moreover, the Ki in assay [1] is less than 50 nM.

On to `CN1CCN(CCOc2ccc3sc(CNC(=O)C4(CC(=O)O)Cc5ccccc5C4)nc3c2)CC1` [Example 25, 2-[2-[[5-[2-(4-methylpiperazin-1-yl)ethoxy]-1,3-benzothiazol-2-yl]methylcarbamoyl]indan-2-yl]acetic acid], for which the inhibition at 25 µM in assay [2] is 60 to 80%. Also, in assay [1], the inhibitory constant (Ki) lay in the range of 200 to 10000 nM.

`NC1CCN(S(=O)(=O)c2cccc3sc(CNC(=O)C4(CC(=O)O)Cc5ccccc5C4)nc23)C1` (stereo not drawn) [Example 6, 2-[2-[[4-(3-aminopyrrolidin-1-yl)sulfonyl-1,3-benzothiazol-2-yl]methylcarbamoyl]indan-2-yl]acetic acid]: the inhibition at 25 µM in assay [2] was 60 to 80%. For the same molecule, in assay [1], the inhibitory constant (Ki) lay in the range of 50 to 200 nM.

`NC(=O)c1cccc2sc(CNC(=O)C3(CC(=O)O)Cc4ccccc4C3)nc12` [Example 1, 2-[2-[(4-carbamoyl-1,3-benzothiazol-2-yl)methylcarbamoyl]indan-2-yl]acetic acid]: the inhibition at 25 µM in assay [2] lay within 10 to 60%. Also, the inhibition constant (Ki) in assay [1] lay within 200 to 10000 nM.

Turning to `COc1cc2sc(CNC(=O)C3(CC(=O)[O-])Cc4ccccc4C3)nc2cc1S(=O)(=O)N1CCC([N+](C)(C)C)CC1` [Example 47, 2-[2-[[6-methoxy-5-[[4-(trimethylammonio)-1-piperidyl]sulfonyl]-1,3-benzothiazol-2-yl]methylcarbamoyl]indan-2-yl]acetate], the inhibition at 25 µM in assay [2] was in the range of 60 to 80%. Besides, in assay [1], the inhibition constant Ki lay within 50 to 200 nM.

Regarding `COc1cc2sc(CNC(=O)C3(CC(=O)O)Cc4cc(F)c(F)cc4C3)nc2cc1OCC(=O)N1CCN(C)CC1` [Example 12, 2-[5,6-difluoro-2-[[6-methoxy-5-[2-(4-methylpiperazin-1-yl)-2-oxo-ethoxy]-1,3-benzothiazol-2-yl]methylcarbamoyl]indan-2-yl]acetic acid], in assay [2], the inhibition at 25 µM fell in the range of 60 to 80%. This molecule also showed an inhibition constant Ki in assay [1] of 50 to 200 nM.

With `COc1cc2sc(CNC(=O)C3(CC(=O)[O-])Cc4cc(F)c(F)cc4C3)nc2cc1OCC(=O)N1CC[N+](C)(C)CC1` [Example 14, 2-[2-[[5-[2-(4,4-dimethylpiperazin-4-ium-1-yl)-2-oxo-ethoxy]-6-methoxy-1,3-benzothiazol-2-yl]methylcarbamoyl]-5,6-difluoro-indan-2-yl]acetate], in assay [2], the inhibition at 25 µM was 60 to 80%. In addition, the inhibition constant (Ki) in assay [1] was in the range of 50 to 200 nM.

On to `COc1cc2sc(CNC(=O)C3(CC(=O)[O-])Cc4cc(F)c(F)cc4C3)nc2cc1C(=O)N1CC([N+](C)(C)C)C1` [Example 43, 2-[5,6-difluoro-2-[[6-methoxy-5-[3-(trimethylammonio)azetidine-1-carbonyl]-1,3-benzothiazol-2-yl]methylcarbamoyl]indan-2-yl]acetate], for which the inhibition at 25 µM in assay [2] lay in the range of 60 to 80%. In assay [1], this molecule had an inhibitory constant (Ki) of 50 to 200 nM.

Consider `CN1CCN(C(=O)COc2ccc3sc(CNC(=O)C4(CC(=O)O)Cc5ccccc5C4)nc3c2)CC1` [Example 24, 2-[2-[[5-[2-(4-methylpiperazin-1-yl)-2-oxo-ethoxy]-1,3-benzothiazol-2-yl]methylcarbamoyl]indan-2-yl]acetic acid], for which the inhibition at 25 µM in assay [2] was in the range of 60 to 80%. Besides, the Ki in assay [1] was 200 to 10000 nM.
